Assay results as given in patent US8362000B2, “Azetidinyl diamides as monoacylglycerol lipase inhibitors” (Janssen Pharmaceutica NV, priority 2009, dated 2013).
Changes are numbered by the printed parent chain. pIC50, pKd: −log10 of the molar value. Where two headings read alike, the source gives them in different places.

Columns and labels:
mutant MGL = biological target: T1, mutant MGL (Homo sapiens, UniProt Q99685, L169S/L176S); test: MGL ThermoFluor assay - mutant; type: binding; details: for Kd: read-out: MGL mutant ThermoFluor qKd (μM) (using qNMR conc.)
T1 sequence (Q99685 1-303 L169S/L176S): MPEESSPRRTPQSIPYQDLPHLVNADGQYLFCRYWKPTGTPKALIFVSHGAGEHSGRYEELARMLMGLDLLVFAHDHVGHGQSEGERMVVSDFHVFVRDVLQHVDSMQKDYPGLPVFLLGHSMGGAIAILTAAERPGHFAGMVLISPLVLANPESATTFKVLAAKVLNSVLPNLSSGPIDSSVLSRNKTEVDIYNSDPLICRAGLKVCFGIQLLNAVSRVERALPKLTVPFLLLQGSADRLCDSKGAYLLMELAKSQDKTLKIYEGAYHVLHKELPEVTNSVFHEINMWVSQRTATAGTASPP

[1] = biological target: T2, purified wild type MGL (wt-MGLL 6H-11-313) (Homo sapiens, UniProt Q99685)
T2 sequence (Q99685 1-303): T1 sequence (Q99685 1-303 L169S/L176S) with S169L, S176L

[2] = compound concentration measured by qNMR, read-out: MGL mutant ThermoFluor qKd (using qNMR conc.)
[3] = ThermoFluor, compound concentration measured by qNMR
[4] = ThermoFluor concentration-response, read-out: MGL mutant ThermoFluor Kd
[5] = ThermoFluor thermal stability binding assay, read-out: MGL mutant ThermoFluor Kd

| pIC50 [1] | SMILES | other results |
| --- | --- | --- |
| 6.56 | O=C(c1ccc2c(ccn2-c2ccc(F)cc2)c1)N1CC(N2CCN(C(=O)c3ccc(Cl)s3)CC2)C1 [Cpd 1423] | Kd (mutant MGL; [3]): 0.176 µM |
| 6.34 | O=C(c1ccc(-c2ccccc2)cc1)N1CCN(C2CN(C(=O)c3cccc(F)c3)C2)CC1 [Cpd 1242, 1-(Biphenyl-4-ylcarbonyl)-4-{1-[(3-fluorophenyl)carbonyl]azetidin-3-yl}piperazine] | pKd (mutant MGL; [4]): 6.71 |
| 6.49 | O=C(c1ccc(-c2ccccc2)cc1)N1CC(N2CCN(C(=O)C3CCC3)CC2)C1 [Cpd 1232] | pKd (mutant MGL; [5]): 6.46 |
| < 4.78 | O=C(c1nc2cc(F)ccc2[nH]1)N1CC(N2CCN(C(=O)c3nccs3)CC2)C1 [Cpd 1443] | pKd (mutant MGL; [5]): < 4.51 |
| 7.12 | O=C(c1cccc(F)c1)N1CCN(C2CN(C(=O)c3ccc4c(ccn4-c4ccc(F)cc4)c3)C2)CC1 [Cpd 1424] | Kd (mutant MGL; [3]): 0.124 µM |
| 6.16 | O=C(c1nccs1)N1CCN(C2CN(C(=O)c3cccc4oc(-c5cccnc5)nc34)C2)CC1 [Cpd 1251] | pKd (mutant MGL; [5]): 6.84 |
| < 4.78 | O=C(c1nccs1)N1CCN(C2CN(C(=O)c3ncoc3-c3ccc(Cl)cc3)C2)CC1 [Cpd 1473] | pKd (mutant MGL; [5]): 5.18 |
| 8.30 | O=C(c1ccc2nn(-c3cccc(C(F)(F)F)c3)cc2c1)N1CC(N2CCN(C(=O)c3nccs3)CC2)C1 [Cpd 1420] | Kd (mutant MGL; [3]): 0.08 µM |
| 6.08 | O=C(c1ccc(-c2cccc(C(F)(F)F)c2)cc1)N1CCN(C2CN(C(=O)c3cocn3)C2)CC1 [Cpd 1258] | pKd (mutant MGL; [5]): 7.70 |
| 6.03 | O=C(c1cscn1)N1CCN(C2CN(C(=O)c3cc(-c4ccccc4)n(-c4ccccc4)n3)C2)CC1 [Cpd 1261] | pKd (mutant MGL; [5]): 6.08 |
| 7.82 | Cc1cn(-c2ccc(C(=O)N3CC(N4CCN(C(=O)c5nccs5)CC4)C3)cc2)c2ccccc12 [Cpd 1413] | Kd (mutant MGL; [3]): 0.003 µM |
| 6.01 | Cc1nc2cc(C(=O)N3CC(N4CCN(C(=O)c5cscn5)CC4)C3)ccc2n1-c1ccc(F)c(F)c1 [Cpd 1264] | pKd (mutant MGL; [2]): 6.60 |
| 6.22 | O=C(c1ccc(-n2ccc(C(F)(F)F)n2)cc1)N1CC(N2CCN(C(=O)c3nccs3)CC2)C1 [Cpd 1249] | pKd (mutant MGL; [4]): 6.62 |

Further lines, the molecule ahead of its results:

| SMILES | pIC50 [1] | other results |
| --- | --- | --- |
| Cc1nc2cc(C(=O)N3CC(N4CCN(C(=O)c5nccs5)CC4)C3)ccc2n1C1CCC(F)(F)CC1 [Cpd 798] | 5.79 | pKd (mutant MGL; [2]): 8.40 |
| O=C(c1ccccc1)N1CCN(C2CN(C(=O)c3cc(-c4cccc(F)c4)c4[nH]ccc4c3)C2)CC1 [Cpd 600] | 5.94 | Kd (mutant MGL; [3]): 1.97 µM |
| O=C(c1ccc2cn(Cc3ccc(F)cc3)nc2c1)N1CC(N2CCN(C(=O)c3nccs3)CC2)C1 [Cpd 1052, 2-(4-Fluorobenzyl)-6-({3-[4-(1,3-thiazol-2-ylcarbonyl)piperazin-1-yl]azetidin-1-yl}carbonyl)-2H-indazole] | 7.55 | pKd (mutant MGL; [2]): 7.19 |
| O=C(c1ccccc1)N1CCN(C2CN(C(=O)c3ccc4c(ccn4-c4ccncc4)c3)C2)CC1 [Cpd 603, 5-({3-[4-(Phenylcarbonyl)piperazin-1-yl]azetidin-1-yl}carbonyl)-1-pyridin-4-yl-1H-indole] | 5.76 | pKd (mutant MGL; ThermoFluor, compound concentration measured by qNMR, read-out: MGL mutant ThermoFluor qKd (using qNMR conc.)): 6.35 |
| Cc1c(C(=O)N2CC(N3CCN(C(=O)c4nccs4)CC3)C2)[nH]c2ccc(-c3ccnn3C)cc12 [Cpd 1205] | 6.77 | Kd (mutant MGL; [3]): 0.008 µM |
| Cc1nc2cc(C(=O)N3CC(N4CCN(C(=O)c5nccs5)CC4)C3)ccc2n1-c1ccccc1 [Cpd 1229] | 6.51 | pKd (mutant MGL; [2]): 7.96 |
| O=C(c1ccc2[nH]c3c(c2c1)CCCC3)N1CC(N2CCN(C(=O)c3nccs3)CC2)C1 [Cpd 763] | 6.20 | pKd (mutant MGL; [4]): 7.08 |
| O=C(c1ccccc1)N1CCN(C2CN(C(=O)c3cccc4[nH]c(-c5ccccc5)nc34)C2)CC1 [Cpd 601] | 5.81 | pKd (mutant MGL; [5]): 6.28 |
| O=C(c1ccc2c(ccn2Cc2cccnc2)c1)N1CC(N2CCN(C(=O)c3nccs3)CC2)C1 [Cpd 1048] | 6.16 | pKd (mutant MGL; [2]): 6.84 |
| O=C(c1ccc2c(c1)[nH]c(=O)n2-c1ccc(F)c(F)c1)N1CC(N2CCN(C(=O)c3nccs3)CC2)C1 [Cpd 935] | 7.00 | pKd (mutant MGL; [4]): 7.47 |
| O=C(c1cscn1)N1CC(N2CCN(C(=O)c3cc4cc(C(F)(F)F)ccc4[nH]3)CC2)C1 [Cpd 772] | 6.10 | pKd (mutant MGL; [4]): 6.73 |
| O=C(c1ccc2c(c1)ncn2CCC(F)(F)F)N1CC(N2CCN(C(=O)c3cscn3)CC2)C1 [Cpd 851] | 5.10 | pKd (mutant MGL; [2]): 6.05 |
| O=C(c1nccs1)N1CCN(C2CN(C(=O)c3cccc4oc(-c5cccc(Cl)c5)nc34)C2)CC1 [Cpd 1191] | 6.98 | pKd (mutant MGL; [5]): 7.96 |
| CC(C)=Cc1c(C(=O)N2CC(N3CCN(C(=O)c4ccccc4)CC3)C2)sc2cc(C(F)(F)F)ccc12 [Cpd 511] | 6.62 | pKd (mutant MGL; [5]): 8.70 |
| Cc1cn(-c2ccc(F)cc2)c2ccc(C(=O)N3CCN(C4CN(C(=O)c5cscn5)C4)CC3)cc12 [Cpd 1230, 1-(4-Fluorophenyl)-3-methyl-5-({4-[1-(1,3-thiazol-4-ylcarbonyl)azetidin-3-yl]piperazin-1-yl}carbonyl)-1H-indole] | 6.51 | pKd (mutant MGL; [4]): 8.05 |
| O=C(c1ccc2c(c1)CCN2C(=O)c1ccccc1)N1CC(N2CCN(C(=O)c3nccs3)CC2)C1 [Cpd 724, 1-(Phenylcarbonyl)-5-({3-[4-(1,3-thiazol-2-ylcarbonyl)piperazin-1-yl]azetidin-1-yl}carbonyl)-2,3-dihydro-1H-indole] | 6.69 | pKd (mutant MGL; [4]): 7.30 |
| Cc1nn(-c2ccc(Cl)c(Cl)c2)c(C)c1C(=O)N1CC(N2CCN(C(=O)c3nccs3)CC2)C1 [Cpd 1225] | 6.56 | pKd (mutant MGL; [4]): 7.38 |
| O=C(c1ccccc1)N1CCN(C2CN(C(=O)c3ccc(Oc4cccc(Cl)c4)nc3)C2)CC1 [Cpd 519, 1-(1-{[6-(3-Chlorophenoxy)pyridin-3-yl]carbonyl}azetidin-3-yl)-4-(phenylcarbonyl)piperazine] | 5.79 | pKd (mutant MGL; [4]): 6.02 |
| O=C(c1ccccc1)N1CCN(C2CN(C(=O)c3cccc4[nH]c(-c5cccc(F)c5)nc34)C2)CC1 [Cpd 609] | 5.36 | pKd (mutant MGL; [5]): 6.00 |
| O=C(c1ccc2nc(-c3nccs3)sc2c1)N1CC(N2CCN(C(=O)c3nccs3)CC2)C1 [Cpd 1210] | 6.71 | Kd (mutant MGL; [3]): 0.097 µM |
| O=C(c1ccc2nc(C(F)(F)F)cc(Cl)c2c1)N1CC(N2CCN(C(=O)c3nccs3)CC2)C1 [Cpd 779] | 6.03 | pKd (mutant MGL; [4]): 7.00 |
| CN(C(=O)Cn1ccc2cc(C(=O)N3CC(N4CCN(C(=O)c5nccs5)CC4)C3)ccc21)c1ccccc1 [Cpd 1031] | 6.95 | pKd (mutant MGL; [2]): 6.87 |
| O=C(c1ccc2nn(Cc3ccc(C(F)(F)F)cc3)cc2c1)N1CC(N2CCN(C(=O)c3nccs3)CC2)C1 [Cpd 1037, 5-({3-[4-(1,3-Thiazol-2-ylcarbonyl)piperazin-1-yl]azetidin-1-yl}carbonyl)-2-[4-(trifluoromethyl)benzyl]-2H-indazole] | 8.30 | pKd (mutant MGL; [2]): 7.66 |
| CC(C)n1c(C(F)(F)F)nc2cc(C(=O)N3CC(N4CCN(C(=O)c5cscn5)CC4)C3)ccc21 [Cpd 831] | 5.39 | pKd (mutant MGL; [4]): 6.57 |
| O=C(c1ccc2c(ccn2CC(F)F)c1)N1CC(N2CCN(C(=O)c3nccs3)CC2)C1 [Cpd 711, 1-(2,2-Difluoroethyl)-5-({3-[4-(1,3-thiazol-2-ylcarbonyl)piperazin-1-yl]azetidin-1-yl}carbonyl)-1H-indole] | 6.90 | pKd (mutant MGL; [2]): 7.30 |
| O=C(c1ccccc1)N1CCN(C2CN(C(=O)c3cc4cc(-c5ccccc5)ccc4o3)C2)CC1 [Cpd 605] | 5.73 | pKd (mutant MGL; [5]): 5.72 |
